*1 amine or outer side, *2 acyl side, *3 side chain or, on linkers, in order; H or OH if unused. Where a SMILES comes first, the peptide text is derived from it. Bridges are numbered along the chain shown (N, C = ends). [ ]: non-standard residue; d: D form. TATA = O=C(CC[*:1])N1CN(C(=O)CC[*:2])CN(C(=O)CC[*:3])C1; Dap = NC[C@H](N)C(=O)O
Biological target: TSLP (Homo sapiens, UniProt Q969D9)
Test: Human TSLP Surface Plasmon Resonance (SPR) binding assay
Design: The resulting construct spCD33-6×HN-TEV-hTSLP(29-159)-Avi; 6xHN tag with TEV site (N, cleaved yes); made in house; host or cells: Expi293F cells
Settings: biotinylated human TSLP immobilized on streptavidin chip; 20° C.; steady-state or kinetic 1:1 fit; read-out: hTSLP SPR Kd

TSLP, sequence (Q969D9 29-159): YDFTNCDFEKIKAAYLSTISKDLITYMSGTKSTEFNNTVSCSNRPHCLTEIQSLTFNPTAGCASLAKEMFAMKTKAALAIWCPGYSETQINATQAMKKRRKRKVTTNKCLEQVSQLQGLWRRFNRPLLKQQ

Structure (SMILES): CC(C)C[C@@H]1NC(=O)[C@H](Cc2c[nH]c3ccccc23)NC(=O)[C@H](CCC(N)=O)NC(=O)[C@@H](NC(=O)[C@H](C)N)CSCCC(=O)N2CN3CN(C2)C(=O)CCSC[C@H](NC(=O)[C@H](CC(=O)O)NC(=O)[C@H](CCC(=O)O)NC1=O)C(=O)N[C@@H](Cc1c[nH]c2ccccc12)C(=O)N[C@@H](CCCNC(=N)N)C(=O)NCC(=O)N[C@@H](Cc1ccccc1)C(=O)N[C@H](C(=O)N[C@@H](CC(=O)O)C(=O)N[C@@H](CC(=O)O)C(=O)N[C@@H](C)C(=O)N[C@@H](Cc1c[nH]cn1)C(=O)N[C@@H](C)C(=O)N1CCC[C@H]1C(N)=O)CSCCC3=O [Example 55, A-(SEQ ID NO: 38)-DDAHAP]
- Kd: 47 nM

Structure (SMILES): CC(C)C[C@@H]1NC(=O)[C@H](Cc2c[nH]c3ccccc23)NC(=O)[C@H](CCC(N)=O)NC(=O)[C@@H](N)CSCCC(=O)N2CN3CN(C2)C(=O)CCSC[C@H](NC(=O)[C@H](CC(=O)O)NC(=O)[C@H](CCC(=O)O)NC1=O)C(=O)N[C@@H](Cc1c[nH]c2ccccc12)C(=O)N[C@@H](CCCNC(N)=O)C(=O)NCC(=O)N[C@@H](Cc1ccccc1)C(=O)N[C@H](C(N)=O)CSCCC3=O [Example 102, (SEQ ID NO: 76)]
- Kd: 170 nM

Structure (SMILES): CC(C)C[C@@H]1NC(=O)[C@H](Cc2c[nH]c3ccccc23)NC(=O)[C@H](CCC(N)=O)NC(=O)[C@@H](N)CSCCC(=O)N2CN3CN(C2)C(=O)CCSC[C@H](NC(=O)[C@H](CC(=O)O)NC(=O)[C@H](CCC(=O)O)NC1=O)C(=O)N[C@@H](Cc1c[nH]c2ccccc12)C(=O)N[C@@H](CN)C(=O)NCC(=O)N[C@@H](Cc1ccccc1)C(=O)N[C@H](C(N)=O)CSCCC3=O [Example 156, (SEQ ID NO: 114)]
- Kd: 3300 nM

Structure (SMILES): CSCC[C@@H]1NC(=O)[C@H](Cc2c[nH]c3ccccc23)NC(=O)[C@H](CCCCN)NC(=O)[C@@H](NC(=O)[C@@H](NC(=O)[C@H](CCC(=O)O)NC(=O)[C@H](C)N)[C@@H](C)O)CSCCC(=O)N2CN3CN(C2)C(=O)CCSC[C@H](NC(=O)[C@H](CC(=O)O)NC(=O)[C@H](Cc2ccc(O)cc2)NC(=O)[C@H](CCC(=O)O)NC(=O)[C@H](Cc2c[nH]c4ccccc24)NC1=O)C(=O)N[C@@H](Cc1c[nH]c2ccccc12)C(=O)N[C@@H](CC(C)C)C(=O)N[C@@H](CO)C(=O)N[C@H](C(=O)N[C@@H](C)C(N)=O)CSCCC3=O [Example 204, AET-(SEQ ID NO: 149)-A] (H-AETCKWMWEYDCWLSCA-NH2; linker 4-12-16 via TATA; N-terminus assumed)
- Kd: 100 nM

Structure (SMILES): CC(C)C[C@@H]1NC(=O)[C@H](Cc2c[nH]c3ccccc23)NC(=O)[C@@H]2CSCCC(=O)N3CN(CN(C3)C(=O)CCSC[C@H](N)C(=O)N[C@@H](CC(=O)O)C(=O)N[C@@H](Cc3c[nH]c4ccccc34)C(=O)N[C@@H](Cc3c[nH]cn3)C(=O)N[C@@H](Cc3c[nH]c4ccccc34)C(=O)N[C@@H](CCC(=O)O)C(=O)N[C@@H](Cc3ccc(O)cc3)C(=O)N[C@@H](CC(=O)O)C(=O)N2)C(=O)CCSC[C@@H](C(=O)N[C@@H](C)C(=O)N[C@@H](CC(N)=O)C(=O)N[C@@H](CO)C(=O)N[C@@H](CCC(=O)O)C(=O)N[C@@H](Cc2ccccc2)C(=O)N[C@@H](CCC(=O)O)C(N)=O)NC(=O)[C@H](CO)NC1=O [Example 227, (SEQ ID NO: 144)-ANSEFE]
- Kd: 740 nM

Structure (SMILES): CC[C@H](C)[C@H](NC(=O)[C@@H]1CCCN1C(=O)[C@H](C)NC(=O)[C@@H]1CSCCC(=O)N2CN3CN(C2)C(=O)CCSC[C@H](NC(=O)[C@H](CC(=O)O)NC(=O)[C@H](Cc2ccc(O)cc2)NC(=O)[C@H]([C@@H](C)O)NC(=O)[C@H](Cc2c[nH]c4ccccc24)NC(=O)[C@H](CC(N)=O)NC(=O)[C@H](Cc2c[nH]c4ccccc24)NC(=O)[C@H](CC(=O)O)NC(=O)[C@@H](NC(=O)[C@H](C)N)CSCCC3=O)C(=O)N[C@@H](Cc2c[nH]c3ccccc23)C(=O)N[C@@H](CC(C)C)C(=O)N[C@@H](CC(=O)O)C(=O)N1)C(N)=O [Example 206, A-(SEQ ID NO: 151)-API] (H-ACDWNWTYDCWLDCAPI-NH2; linker 2-10-14 via TATA; N-terminus and C-terminus assumed)
- Kd: 430 nM

Structure (SMILES): CC(C)C[C@@H]1NC(=O)[C@H](Cc2c[nH]c3ccccc23)NC(=O)[C@@H]2CSCCC(=O)N3CN(CN(C3)C(=O)CCSC[C@H](NC(=O)[C@H](CCC(=O)O)NC(=O)[C@H](Cc3c[nH]cn3)NC(=O)[C@H](Cc3c[nH]cn3)NC(=O)[C@H](CCC(N)=O)NC(=O)[C@H](CCC(=O)O)NC(=O)[C@@H](N)CC(=O)O)C(=O)N[C@@H](CC(=O)O)C(=O)N[C@@H](Cc3c[nH]c4ccccc34)C(=O)N[C@@H](Cc3c[nH]cn3)C(=O)N[C@@H](Cc3c[nH]c4ccccc34)C(=O)N[C@@H](CCC(=O)O)C(=O)N[C@@H](Cc3ccc(O)cc3)C(=O)N[C@@H](CC(=O)O)C(=O)N2)C(=O)CCSC[C@@H](C(=O)N[C@@H](C)C(N)=O)NC(=O)[C@H](CO)NC1=O [Example 209, DEQHHE-(SEQ ID NO: 144)-A]
- Kd: 910 nM

Structure (SMILES): CC(=O)N[C@H]1CSCCC(=O)N2CN3CN(C2)C(=O)CCSC[C@H](NC(=O)[C@H](CC(=O)O)NC(=O)[C@H](CCC(=O)O)NC(=O)[C@H](CC(C)C)NC(=O)[C@H](Cc2c[nH]c4ccccc24)NC(=O)[C@H](CCC(N)=O)NC1=O)C(=O)N[C@@H](Cc1c[nH]c2ccccc12)C(=O)N[C@@H](CN)C(=O)NCC(=O)N[C@@H](Cc1ccccc1)C(=O)N[C@H](C(N)=O)CSCCC3=O [Example 155, Ac-(SEQ ID NO: 114)]
- Kd: 3200 nM

Structure (SMILES): CC(C)C[C@@H]1NC(=O)[C@H](CO)NC(=O)[C@@H](NC(=O)[C@H](C)N)CSCCC(=O)N2CN3CN(C2)C(=O)CCSC[C@@H](C(=O)N[C@@H](C)C(N)=O)NC(=O)[C@H]([C@@H](C)O)NC(=O)[C@H](Cc2c[nH]c4ccccc24)NC(=O)[C@H](Cc2c[nH]c4ccccc24)NC(=O)[C@H](CC(N)=O)NC(=O)[C@H](Cc2c[nH]cn2)NC(=O)[C@H](CSCCC3=O)NC(=O)[C@H](CO)NC(=O)[C@H](Cc2c[nH]c3ccccc23)NC(=O)[C@@H]2CCCN2C(=O)[C@H](CC(=O)O)NC1=O [Example 229, A-(SEQ ID NO: 156)-A] (H-ACSLDPWSCHNWWTCA-NH2; linker 2-9-15 via TATA; N-terminus and C-terminus assumed)
- Kd: 9900 nM

Structure (SMILES): CC(=O)N[C@H]1CSCCC(=O)N2CN3CN(C2)C(=O)CCSC[C@H](NC(=O)[C@H](CC(N)=O)NC(=O)[C@H](CCC(=O)O)NC(=O)[C@H](CC(C)C)NC(=O)[C@H](Cc2c[nH]c4ccccc24)NC(=O)[C@H](Cc2c[nH]cn2)NC1=O)C(=O)N[C@@H](Cc1c[nH]c2ccccc12)C(=O)N[C@@H](CN)C(=O)NCC(=O)N[C@@H](Cc1ccccc1)C(=O)N[C@H](C(N)=O)CSCCC3=O [Example 159, Ac-(SEQ ID NO: 117)] (Ac-CHWLENCW[Dap]GFC-NH2; linker 1-7-12 via TATA; C-terminus assumed)
- Kd: 5600 nM

Structure (SMILES): CC(=O)N[C@H]1CSCCC(=O)N2CN3CN(C2)C(=O)CCSC[C@H](NC(=O)[C@H](CC(=O)O)NC(=O)[C@H](CCC(=O)O)NC(=O)[C@H](CC(C)C)NC(=O)[C@H](Cc2c[nH]c4ccc(F)cc24)NC(=O)[C@H](CCC(N)=O)NC1=O)C(=O)N[C@@H](Cc1c[nH]c2ccc(F)cc12)C(=O)N[C@@H](CCCNC(=N)N)C(=O)NCC(=O)N[C@@H](Cc1ccc(F)cc1)C(=O)N[C@H](C(N)=O)CSCCC3=O [Example 21, Ac-(SEQ ID NO: 19)]
- Kd: 9.2 nM

Structure (SMILES): CC(C)C[C@@H]1NC(=O)[C@H](Cc2c[nH]c3ccccc23)NC(=O)[C@@H]2CSCCC(=O)N3CN(CN(C3)C(=O)CCSC[C@H](NC(=O)[C@@H]3CCCN3C(=O)[C@@H]3CCCN3C(=O)[C@H](CCC(=O)O)NC(=O)[C@@H](NC(=O)[C@@H]3CCCN3C(=O)[C@@H](N)CO)[C@@H](C)O)C(=O)N[C@@H](CC(=O)O)C(=O)N[C@@H](Cc3c[nH]c4ccccc34)C(=O)N[C@@H](Cc3c[nH]cn3)C(=O)N[C@@H](Cc3c[nH]c4ccccc34)C(=O)N[C@@H](CCC(=O)O)C(=O)N[C@@H](Cc3ccc(O)cc3)C(=O)N[C@@H](CC(=O)O)C(=O)N2)C(=O)CCSC[C@@H](C(N)=O)NC(=O)[C@H](CO)NC1=O [Example 215, SPTEPP-(SEQ ID NO: 144)]
- Kd: 240 nM

Structure (SMILES): CC(C)C[C@@H]1NC(=O)[C@H](Cc2c[nH]c3ccccc23)NC(=O)[C@H](Cc2c[nH]c3ccccc23)NC(=O)[C@H](CO)NC(=O)[C@H](CO)NC(=O)[C@@H]2CSCCC(=O)N3CN(CN(C3)C(=O)CCSC[C@H](NC(=O)[C@@H](NC(=O)[C@H](CC(=O)O)NC(=O)[C@H](CCCNC(=N)N)NC(=O)[C@H](CCC(N)=O)NC(=O)[C@H](Cc3ccc(O)cc3)NC(=O)[C@@H](N)CCC(=O)O)C(C)C)C(=O)N[C@@H](CCCNC(=N)N)C(=O)N[C@@H](CC(=O)O)C(=O)N[C@@H](CC(C)C)C(=O)N[C@@H](CC(=O)O)C(=O)N3CCC[C@H]3C(=O)N[C@@H](Cc3c[nH]c4ccccc34)C(=O)N[C@@H]([C@@H](C)O)C(=O)N2)C(=O)CCSC[C@@H](C(=O)N[C@@H](C)C(N)=O)NC1=O [Example 173, EYQRDV-(SEQ ID NO: 122)-A]
- Kd: 77 nM

Structure (SMILES): CC(=O)N[C@H]1CSCCC(=O)N2CN3CN(C2)C(=O)CCSC[C@H](NC(=O)[C@H](CC(=O)O)NC(=O)[C@H](Cc2ccc(O)cc2)NC(=O)[C@H](CCC(=O)O)NC(=O)[C@H](Cc2c[nH]c4ccccc24)NC(=O)[C@H](Cc2c[nH]cn2)NC(=O)[C@H](Cc2c[nH]c4ccccc24)NC(=O)[C@H](CC(=O)O)NC1=O)C(=O)N[C@@H](Cc1c[nH]c2ccccc12)C(=O)N[C@@H](CC(C)C)C(=O)N[C@@H](CO)C(=O)N[C@H](C(N)=O)CSCCC3=O [Example 218, Ac-(SEQ ID NO: 144)]
- Kd: 2000 nM

Structure (SMILES): CC(C)C[C@@H]1NC(=O)[C@H](Cc2c[nH]c3ccccc23)NC(=O)[C@H](CCC(N)=O)NC(=O)[C@@H](N)CSCCC(=O)N2CN3CN(C2)C(=O)CCSC[C@H](NC(=O)[C@H](CC(=O)O)NC(=O)[C@H](CCC(=O)O)NC1=O)C(=O)N[C@@H](Cc1c[nH]c2ccccc12)C(=O)N[C@@H](CCCNC(=N)N)C(=O)NCC(=O)N[C@@H](Cc1ccc(F)cc1)C(=O)N[C@H](C(=O)O)CSCCC3=O [Example 48, (SEQ ID NO: 15)-COOH]
- Kd: 33 nM

Reference: US11866518B2, “Bicyclic peptide ligands specific for TSLP” (BicycleTx Limited, priority 2020, dated 2024)
